Measurements from US20180064829A1, “FLUORESCENT BISPHOSPHONATE ANALOGS” (University of Southern California, priority 2015, published 2018).

Experiments:
[1] = RIS; not covered by the MarvinSketch note; cited from earlier work
[2] = pKa and protonation status of the heterocyclic nitrogen; format: physicochemical; details: pH 6.0; calculated by Henderson-Hasselbalch equation
Description: The nucleophilicity and Lewis basicity of the nitrogen atom of the three heterocyclic N-BPs studied in this report vary, and these properties appear to be the major determinants of their conjugation reactivity. Thus, the ‘magic linker’ methodology for RIS required modification for ZOL (1d), MIN (1e), and their related analogues (1f). […] The protonation status of the heteroatom at different pH is also critical to the reactivity. […] Under such conditions, more than 50% (˜71.3% calculated) of the nitrogen of RIS will be deprotonated, and able to attack the epoxide ring nucleophilically. However, at pH 6.0, only 18% of the nitrogen of ZOL (22% for MIN) is deprotonated, thus the reactions were very slow (2d) at pH 6.0. At pH 7.0-7.5, reaction was more rapid, but the regioselectivity (N-alkylation vs. O-alkylation) for 1d, 1e, 1f was not as good as for RIS and its analogues (1a, 1b, 1c); 10-20% of side products could be observed, which were confirmed by HPLC, NMR and MS to be the products of N,O(P)-dialkylation (O-alkylation occurs between the phosphonate/carboxylate group of the drug and the epoxide). The reaction rate of MinPC (1f)-epoxide (5) coupling was even slower than ZOL under the same reaction conditions (same reactant ratio, pH 7.5, 40-45° C.), which might be due to a steric effect from the large heterocycle. In addition, the percent of side products was higher and O-alkylation products were also observed in the reaction mixture.
The following publications are incorporated by reference herein in their entirety: • [1] a) R. G. G. Russell, N. B. Watts, F. H. Ebetino, M. J. Rogers, Osteoporos. Int. 2008, 19, 733-759; b) F. Ebetino, A. Hogan, S. Sun, M. Tsoumpra, X. Duan, J. Triffitt, A. Kwaasi, J. Dunford, B. Barnett, U. Oppermann, M. Lundy, A. Boyde, B. Kashemirov, C. McKenna, R. Russell, Bone 2011, 49 20-33. • [2] a) I. Reid, M. Bolland, A. Grey, Bone 2007, 41, 318-320; b) A. Siddiqi, A. Payne, S. Zafar, Oral Surg. Oral Med. Oral Pathol. Oral Radiol. Endod. […]

[3] = parent compounds, ref. [23]; cited from earlier work
bone resorption = details: rat model in vivo, ref. [15a]; cited from earlier work
[4] = system: unprenylated Rap1A (uRap1A); assay: Prenylation assay: Western blot for unprenylated Rap1A in J774.2 macrophages; format: cell-based, mouse; details: 10 or 100 μM, 24 h, FIG. 5A-C
[5] = UV-VIS absorption and fluorescence emission spectra; format: physicochemical; details: 0.1M phosphate buffer (1x PBS for 7d5); ± 1 nm error
[6] = pH 7.2, 0.1M phosphate buffer; assumed the same as the corresponding fluorescent dye; cited from earlier work

Compound | pKa of the heterocyclic nitrogen [1] | fraction of the heterocyclic nitrogen deprotonated [2] [%] | rank order of mineral binding affinity [3] | Anti-resorptive activity (bone resorption) | accumulation of unprenylated Rap1A (anti-prenylation activity) [4] | Maximum absorption wavelength (λmax (abs), nm) [5] [nm] | Maximum emission wavelength (λmax (em), nm) [5] [nm] | Extinction coefficient [6]
O=P(O)(O)C(O)(Cc1cccnc1)P(=O)(O)O [RIS, (1-hydroxy-2-pyridin-3-ylethane-1,1-diyl)bis(phosphonic acid)] | 5.67 | ~71.3 | RIS>dRIS>RISPC | – | – | – | – | –
O=C(NCC(O)C[n+]1ccn(CC(O)(P(=O)(O)O)P(=O)(O)O)c1)c1ccc(-c2c3ccc(=O)cc-3oc3cc(O)ccc23)c(C(=O)O)c1 (centres unmarked) [Compound 5-FAM-ZOL, 3-(3-(3-carboxy-4-(6-hydroxy-3-oxo-3H-xanthen-9-yl)benzamido)-2-hydroxypropyl)-1-(2-hydroxy-2,2-diphosphonoethyl)-1H-imidazol-3-ium] | – | – | – | demonstrated | retain some activity, although their potencies are weaker than native ZOL | 493 | 521 | 73,000 (pH 7.2) M^−1cm^−1
